# Test results as given in ChEMBL document CHEMBL5370531, “Design, synthesis and pharmacological evaluation of 2,3-dihydrobenzofuran IRAK4 inhibitors for the treatment of diffuse large B-cell lymphoma” (Eur J Med Chem, 2023).
# The source made the active and inactive calls. The calls are words filed in the database; no cut-off is given here.
# Experiments:
# OCI-Ly10 [1] = test: Cytotoxicity against human OCILY10 cells assessed as inhibition of cell proliferation incubated for 72 hrs by CCK-8 assay; type: functional, cell-based; details: OCI-Ly10, 72 h
# [2] = biological target: Tyrosine-protein kinase BTK (Homo sapiens) (UniProt Q06187); test: Inhibition of BTK (unknown origin) at 100 nM incubated for 1 hr in presence of ATP by ELISA analysis
# Tyrosine-protein kinase BTK (Homo sapiens), sequence (Q06187 whole entry): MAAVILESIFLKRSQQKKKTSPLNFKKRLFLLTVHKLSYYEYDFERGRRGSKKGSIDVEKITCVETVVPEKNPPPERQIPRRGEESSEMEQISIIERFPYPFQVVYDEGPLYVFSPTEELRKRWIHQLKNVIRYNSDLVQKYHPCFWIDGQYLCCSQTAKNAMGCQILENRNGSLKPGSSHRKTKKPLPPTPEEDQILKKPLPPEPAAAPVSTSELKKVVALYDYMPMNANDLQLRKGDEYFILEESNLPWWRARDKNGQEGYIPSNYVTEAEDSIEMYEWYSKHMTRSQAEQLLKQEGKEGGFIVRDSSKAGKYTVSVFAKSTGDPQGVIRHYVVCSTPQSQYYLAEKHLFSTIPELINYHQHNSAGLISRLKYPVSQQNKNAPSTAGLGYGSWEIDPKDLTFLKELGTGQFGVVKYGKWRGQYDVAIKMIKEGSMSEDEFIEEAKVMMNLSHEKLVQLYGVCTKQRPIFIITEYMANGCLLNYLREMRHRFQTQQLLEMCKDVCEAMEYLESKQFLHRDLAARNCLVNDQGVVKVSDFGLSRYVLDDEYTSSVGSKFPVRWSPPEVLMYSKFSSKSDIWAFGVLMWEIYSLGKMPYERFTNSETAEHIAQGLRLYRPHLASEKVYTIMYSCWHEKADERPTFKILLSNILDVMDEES
# OCI-Ly10 [3] = test: Synergistic antiproliferative activity against human OCILY10 cells harboring MYD88 L265P assessed as inhibition of cell growth at 100 nM incubated for 72 hrs in presence of BTK inhibitor, ibrutinib at 6.2 nM by CCK-8 assay (reference value: 21.36 %); type: functional
# OCI-Ly10 [4] = test: Synergistic antiproliferative activity against human OCILY10 cells harboring MYD88 L265P assessed as inhibition of cell growth at 200 nM incubated for 72 hrs in presence of BTK inhibitor, ibrutinib at 3.1 nM by CCK-8 assay (reference value: 26.07 %); type: functional
# OCI-Ly10 [5] = test: Induction of apoptosis in human OCILY10 cells assessed as early apoptotic cells at 0.1 uM incubated for 24 hrs by Annexin V-FITC/PI staining based flow cytometry (reference value: 10 %); type: functional
# OCI-Ly10 [6] = test: Synergistic antiproliferative activity against human OCILY10 cells harboring MYD88 L265P assessed as inhibition of cell growth at 200 nM incubated for 72 hrs in presence of BTK inhibitor, ibrutinib at 12.5 nM by CCK-8 assay (reference value: 26.07 %); type: functional
# OCI-Ly10 [7] = test: Induction of apoptosis in human OCILY10 cells harboring MYD88 L265P assessed as upregulation of PARP cleavage at 0.2 uM in presence of BTK inhibitor, ibrutinib by immunoblotting analysis; type: functional, cell-based
# [8] = biological target: Proto-oncogene tyrosine-protein kinase Src (Homo sapiens) (UniProt P12931); test: Inhibition of SRC (unknown origin) at 100 nM incubated for 1 hr in presence of ATP by ELISA analysis
# Proto-oncogene tyrosine-protein kinase Src (Homo sapiens), sequence (P12931 2-536 limits assumed): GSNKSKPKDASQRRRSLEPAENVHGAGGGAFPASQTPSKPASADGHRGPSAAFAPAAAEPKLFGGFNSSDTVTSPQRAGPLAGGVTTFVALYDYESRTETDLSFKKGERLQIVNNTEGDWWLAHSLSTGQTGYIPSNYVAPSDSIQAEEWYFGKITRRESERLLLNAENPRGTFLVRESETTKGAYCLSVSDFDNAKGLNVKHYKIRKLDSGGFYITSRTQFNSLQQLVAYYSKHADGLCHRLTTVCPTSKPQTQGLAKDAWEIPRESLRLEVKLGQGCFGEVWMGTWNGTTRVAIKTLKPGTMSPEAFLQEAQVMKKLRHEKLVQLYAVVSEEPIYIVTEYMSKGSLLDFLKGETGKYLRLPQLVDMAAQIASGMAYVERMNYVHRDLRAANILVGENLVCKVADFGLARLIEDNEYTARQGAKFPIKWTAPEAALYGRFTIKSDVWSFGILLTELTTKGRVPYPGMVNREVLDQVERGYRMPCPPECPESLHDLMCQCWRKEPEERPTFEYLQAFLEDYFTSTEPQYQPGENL
# OCI-Ly10 [9] = test: Induction of apoptosis in human OCILY10 cells at 1 uM incubated for 24 hrs by Annexin V-FITC/PI staining based flow cytometry; type: functional
# OCI-Ly10 [10] = test: Induction of apoptosis in human OCILY10 cells assessed as late apoptotic cells at 0.2 uM incubated for 24 hrs by Annexin V-FITC/PI staining based flow cytometry (reference value: 3.71 %); type: functional
# OCI-Ly10 [11] = test: Induction of apoptosis in human OCILY10 cells assessed as late apoptotic cells at 1 uM incubated for 48 hrs by Annexin V-FITC/PI staining based flow cytometry (reference value: 3.54 %); type: functional
# OCI-Ly10 [12] = test: Induction of apoptosis in human OCILY10 cells assessed as late apoptotic cells at 0.1 uM incubated for 48 hrs by Annexin V-FITC/PI staining based flow cytometry (reference value: 3.54 %); type: functional
# [13] = biological target: Fibroblast growth factor receptor 2 (Homo sapiens) (UniProt P21802); test: Inhibition of FGFR2 (unknown origin) at 100 nM incubated for 1 hr in presence of ATP by ELISA analysis
# OCI-Ly10 [14] = test: Induction of apoptosis in human OCILY10 cells harboring MYD88 L265P assessed as late apoptotic cells at 0.2 uM incubated for 48 hrs in presence of BTK inhibitor, ibrutinib by Annexin V-FITC/PI staining based flow cytometry (reference value: 6.59 %); type: functional
# OCI-Ly10 [15] = test: Synergistic antiproliferative activity against human OCILY10 cells harboring MYD88 L265P assessed as inhibition of cell growth at 800 nM incubated for 72 hrs in presence of BTK inhibitor, ibrutinib at 12.5 nM by CCK-8 assay (reference value: 54.76 %); type: functional
# OCI-Ly10 [16] = test: Synergistic antiproliferative activity against human OCILY10 cells harboring MYD88 L265P assessed as inhibition of cell growth at 200 nM incubated for 72 hrs in presence of BTK inhibitor, ibrutinib at 25 nM by CCK-8 assay (reference value: 26.07 %); type: functional
# OCI-Ly10 [17] = test: Synergistic antiproliferative activity against human OCILY10 cells harboring MYD88 L265P assessed as inhibition of cell growth at 100 nM incubated for 72 hrs in presence of BTK inhibitor, ibrutinib at 12.5 nM by CCK-8 assay (reference value: 21.36 %); type: functional
# OCI-Ly10 [18] = test: Induction of apoptosis in human OCILY10 cells at 0.5 uM incubated for 48 hrs by Annexin V-FITC/PI staining based flow cytometry; type: functional
# [19] = biological target: Proto-oncogene tyrosine-protein kinase receptor Ret (Homo sapiens) (UniProt P07949); test: Inhibition of RET (unknown origin) at 100 nM incubated for 1 hr in presence of ATP by ELISA analysis relative to control
# Proto-oncogene tyrosine-protein kinase receptor Ret (Homo sapiens), sequence (P07949 whole entry): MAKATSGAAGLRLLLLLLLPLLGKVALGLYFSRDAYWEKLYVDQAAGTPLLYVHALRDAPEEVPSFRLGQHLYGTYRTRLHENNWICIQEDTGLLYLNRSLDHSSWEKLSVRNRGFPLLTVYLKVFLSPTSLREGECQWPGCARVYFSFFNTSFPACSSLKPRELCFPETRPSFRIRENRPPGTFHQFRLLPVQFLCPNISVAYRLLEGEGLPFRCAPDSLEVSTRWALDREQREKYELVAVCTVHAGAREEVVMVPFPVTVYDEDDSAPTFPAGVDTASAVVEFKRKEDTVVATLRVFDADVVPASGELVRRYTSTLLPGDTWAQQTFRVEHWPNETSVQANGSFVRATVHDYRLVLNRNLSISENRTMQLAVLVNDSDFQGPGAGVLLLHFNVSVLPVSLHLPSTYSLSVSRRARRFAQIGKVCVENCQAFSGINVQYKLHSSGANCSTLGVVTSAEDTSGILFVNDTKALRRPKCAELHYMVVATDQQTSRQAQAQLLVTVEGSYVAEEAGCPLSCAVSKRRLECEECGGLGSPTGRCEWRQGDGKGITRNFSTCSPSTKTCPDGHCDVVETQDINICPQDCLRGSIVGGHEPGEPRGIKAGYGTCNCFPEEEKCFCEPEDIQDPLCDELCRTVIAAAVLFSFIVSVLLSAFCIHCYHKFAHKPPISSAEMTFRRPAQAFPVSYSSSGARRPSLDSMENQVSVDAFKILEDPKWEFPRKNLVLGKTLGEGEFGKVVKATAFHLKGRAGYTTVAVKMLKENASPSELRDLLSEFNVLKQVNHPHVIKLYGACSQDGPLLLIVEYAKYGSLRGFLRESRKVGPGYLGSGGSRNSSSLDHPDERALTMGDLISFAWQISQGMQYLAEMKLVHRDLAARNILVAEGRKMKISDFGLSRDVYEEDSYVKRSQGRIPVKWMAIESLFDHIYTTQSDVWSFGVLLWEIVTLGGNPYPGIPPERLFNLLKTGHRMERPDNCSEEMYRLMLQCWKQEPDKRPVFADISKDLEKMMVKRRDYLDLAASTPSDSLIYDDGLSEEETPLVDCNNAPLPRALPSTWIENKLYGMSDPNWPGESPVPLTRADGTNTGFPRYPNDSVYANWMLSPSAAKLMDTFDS
# OCI-Ly10 [20] = test: Synergistic antiproliferative activity against human OCILY10 cells harboring MYD88 L265P assessed as inhibition of cell growth at 400 nM incubated for 72 hrs in presence of BTK inhibitor, ibrutinib at 3.1 nM by CCK-8 assay (reference value: 34.46 %); type: functional
# OCI-Ly10 [21] = test: Synergistic antiproliferative activity against human OCILY10 cells harboring MYD88 L265P assessed as inhibition of cell growth at 400 nM incubated for 72 hrs in presence of BTK inhibitor, ibrutinib at 1.6 nM by CCK-8 assay (reference value: 34.46 %); type: functional
# OCI-Ly10 [22] = test: Synergistic antiproliferative activity against human OCILY10 cells harboring MYD88 L265P assessed as inhibition of cell growth at 1600 nM incubated for 72 hrs in presence of BTK inhibitor, ibrutinib at 6.2 nM by CCK-8 assay (reference value: 64.69 %); type: functional
# OCI-Ly10 [23] = test: Synergistic antiproliferative activity against human OCILY10 cells harboring MYD88 L265P assessed as inhibition of cell growth at 200 nM incubated for 72 hrs in presence of BTK inhibitor, ibrutinib at 6.2 nM by CCK-8 assay (reference value: 26.07 %); type: functional
# [24] = biological target: Ephrin type-A receptor 2 (Homo sapiens) (UniProt P29317); test: Inhibition of EPHA2 (unknown origin) at 100 nM incubated for 1 hr in presence of ATP by ELISA analysis
# Ephrin type-A receptor 2 (Homo sapiens), sequence (P29317 whole entry): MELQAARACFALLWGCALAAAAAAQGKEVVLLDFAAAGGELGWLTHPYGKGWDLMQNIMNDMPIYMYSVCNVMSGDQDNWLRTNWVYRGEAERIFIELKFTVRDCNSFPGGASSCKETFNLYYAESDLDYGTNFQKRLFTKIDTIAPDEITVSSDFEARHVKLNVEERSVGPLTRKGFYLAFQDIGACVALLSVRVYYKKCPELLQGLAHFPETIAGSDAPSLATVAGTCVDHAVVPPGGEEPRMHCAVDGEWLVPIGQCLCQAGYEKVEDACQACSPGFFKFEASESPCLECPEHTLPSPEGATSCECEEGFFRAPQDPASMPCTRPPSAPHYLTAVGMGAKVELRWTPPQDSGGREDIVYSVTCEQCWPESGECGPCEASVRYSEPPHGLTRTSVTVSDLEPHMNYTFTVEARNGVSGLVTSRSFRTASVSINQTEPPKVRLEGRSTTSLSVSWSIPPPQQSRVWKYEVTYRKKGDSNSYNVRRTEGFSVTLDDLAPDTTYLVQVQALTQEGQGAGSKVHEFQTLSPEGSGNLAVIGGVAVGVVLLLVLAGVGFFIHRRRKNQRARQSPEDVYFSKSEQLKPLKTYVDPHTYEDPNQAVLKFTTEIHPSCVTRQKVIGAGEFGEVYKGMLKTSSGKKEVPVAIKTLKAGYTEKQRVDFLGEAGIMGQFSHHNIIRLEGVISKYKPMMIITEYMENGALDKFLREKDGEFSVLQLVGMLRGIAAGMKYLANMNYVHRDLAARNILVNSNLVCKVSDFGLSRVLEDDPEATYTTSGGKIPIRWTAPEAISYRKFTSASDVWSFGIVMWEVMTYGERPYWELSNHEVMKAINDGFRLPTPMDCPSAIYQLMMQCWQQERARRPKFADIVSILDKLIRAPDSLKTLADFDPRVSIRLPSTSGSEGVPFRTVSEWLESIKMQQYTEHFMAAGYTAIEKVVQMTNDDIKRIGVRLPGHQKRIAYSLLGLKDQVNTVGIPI
# OCI-Ly10 [25] = test: Synergistic antiproliferative activity against human OCILY10 cells harboring MYD88 L265P assessed as inhibition of cell growth at 1600 nM incubated for 72 hrs in presence of BTK inhibitor, ibrutinib at 12.5 nM by CCK-8 assay (reference value: 64.69 %); type: functional
# [26] = biological target: Mast/stem cell growth factor receptor Kit (Homo sapiens) (UniProt P10721); test: Inhibition of C-kit (unknown origin) at 100 nM incubated for 1 hr in presence of ATP by ELISA analysis
# OCI-Ly10 [27] = test: Synergistic antiproliferative activity against human OCILY10 cells harboring MYD88 L265P assessed as inhibition of cell growth at 1600 nM incubated for 72 hrs in presence of BTK inhibitor, ibrutinib at 25 nM by CCK-8 assay (reference value: 64.69 %); type: functional
# [28] = biological target: Platelet-derived growth factor receptor beta (Homo sapiens) (UniProt P09619); test: Inhibition of PDGFR-beta (unknown origin) at 100 nM incubated for 1 hr in presence of ATP by ELISA analysis
# Platelet-derived growth factor receptor beta (Homo sapiens), sequence (P09619 whole entry): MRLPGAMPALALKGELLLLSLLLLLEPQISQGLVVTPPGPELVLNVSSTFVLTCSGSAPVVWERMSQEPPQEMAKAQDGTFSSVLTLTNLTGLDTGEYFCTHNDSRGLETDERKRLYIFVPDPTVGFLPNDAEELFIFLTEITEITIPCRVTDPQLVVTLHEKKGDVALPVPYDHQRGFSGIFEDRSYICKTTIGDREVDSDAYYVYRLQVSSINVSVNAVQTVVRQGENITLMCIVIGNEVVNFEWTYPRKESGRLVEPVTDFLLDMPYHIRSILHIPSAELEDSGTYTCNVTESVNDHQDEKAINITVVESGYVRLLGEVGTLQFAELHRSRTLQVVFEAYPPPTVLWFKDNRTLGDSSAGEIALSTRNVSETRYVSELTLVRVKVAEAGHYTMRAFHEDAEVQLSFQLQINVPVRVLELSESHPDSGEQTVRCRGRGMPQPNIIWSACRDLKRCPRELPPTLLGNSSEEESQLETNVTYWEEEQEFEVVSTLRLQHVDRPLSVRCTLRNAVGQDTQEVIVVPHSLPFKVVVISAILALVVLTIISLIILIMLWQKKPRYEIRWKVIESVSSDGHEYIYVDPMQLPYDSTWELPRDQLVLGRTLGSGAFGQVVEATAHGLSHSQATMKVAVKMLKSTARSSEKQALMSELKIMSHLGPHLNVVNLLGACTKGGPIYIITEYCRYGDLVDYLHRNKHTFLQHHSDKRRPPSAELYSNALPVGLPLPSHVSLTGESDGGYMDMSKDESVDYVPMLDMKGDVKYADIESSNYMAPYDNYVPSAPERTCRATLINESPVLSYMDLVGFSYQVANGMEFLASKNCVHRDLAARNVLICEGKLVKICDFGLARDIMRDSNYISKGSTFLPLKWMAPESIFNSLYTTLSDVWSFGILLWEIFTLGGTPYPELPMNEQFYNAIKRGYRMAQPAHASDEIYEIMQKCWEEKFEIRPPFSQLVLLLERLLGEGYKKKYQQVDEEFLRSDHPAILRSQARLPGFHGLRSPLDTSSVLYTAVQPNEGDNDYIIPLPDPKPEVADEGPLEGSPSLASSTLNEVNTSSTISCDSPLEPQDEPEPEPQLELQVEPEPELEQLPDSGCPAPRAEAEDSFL
compound,measurement,setting,value
Cn1cc(-c2cc3c(cc2NC(=O)c2coc(-c4ccnc(N)c4)n2)CC(C)(C)O3)cn1,IC50,OCI-Ly10 [1],248 nM
same,inhibition,[2],inactive
same,inhibition at 0.1 µM,OCI-Ly10 [3],44.9%
same,inhibition at 0.2 µM,OCI-Ly10 [4],29.5%
same,Activity,OCI-Ly10 [5],9.32%
same,inhibition at 0.2 µM,OCI-Ly10 [6],67.5%
same,Activity,OCI-Ly10 [7],Active
same,inhibition,[8],inactive
same,Activity,OCI-Ly10 [9],66.8%
same,Activity,OCI-Ly10 [10],11.8%
same,Activity,OCI-Ly10 [11],37.7%
same,Activity,OCI-Ly10 [12],7.93%
same,inhibition,[13],inactive
same,Activity,OCI-Ly10 [14],33.2%
same,inhibition at 0.8 µM,OCI-Ly10 [15],86.4%
same,inhibition at 0.2 µM,OCI-Ly10 [16],75.4%
same,inhibition at 0.1 µM,OCI-Ly10 [17],62.1%
same,Activity,OCI-Ly10 [18],67.2%
same,inhibition,[19],> 50%
same,inhibition at 0.4 µM,OCI-Ly10 [20],42.3%
same,inhibition at 0.4 µM,OCI-Ly10 [21],37.4%
same,inhibition at 1.6 µM,OCI-Ly10 [22],88.6%
same,inhibition at 0.2 µM,OCI-Ly10 [23],53.8%
same,inhibition,[24],inactive
same,inhibition at 1.6 µM,OCI-Ly10 [25],88.7%
same,inhibition,[26],inactive
same,inhibition at 1.6 µM,OCI-Ly10 [27],89.6%
same,inhibition,[28],inactive
